# Laboratory results as given in patent US9708314B2, “Heterocyclic amide compound” (NISSAN CHEMICAL INDUSTRIES, LTD., priority 2013, dated 2017).
# What was measured:
# Type in all cases: in vivo
# [1] = system: Cyperus difformis; test: Test Example 3: herbicidal effect by application to foliage (Wagner pot, water depth 0.1-0.5 cm); settings: Nineteenth Table; application to foliage; application herbicide amount 320 g/ha
# Method in brief: (§1)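 Seeds were sown in alluvial soil in Wagner pots, grown for 14 days at 25–30 °C, then sprayed uniformly on foliage with the emulsified compound diluted to a given rate per hectare. Injury was graded three weeks after treatment from 0 (≤5%) to 5 (≥90%).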
# [2] = system: Echinochloa crus-galli var. crus-galli; test: as above; settings: Nineteenth Table; application to foliage; application herbicide amount 320 g/ha
# Method in brief: as §1
# [3] = system: Leptochloa chinensis; test: as above; settings: Nineteenth Table; application to foliage; application herbicide amount 320 g/ha
# Method in brief: as §1
# [4] = system: Abutilon theophrasti; test: Test Example 4: herbicidal effect by application to foliage (diluvial soil, plastic box); settings: application to foliage, 320 g/ha
# Method in brief: (§2)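 Seeds sown in sterilized diluvial soil, covered ~1.5 cm, grown 14 days in greenhouse at 25° C. to 30° C. Emulsion formulation diluted in water to set rate (g/ha) and sprayed onto stems and leaves. Effect scored visually 3 weeks later on 0–5 scale (5 = ≥90% herbicidal ratio, 0 = ≤5%).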
# [5] = system: Alopecurus myosuroides; test: as above; settings: application to foliage, 320 g/ha
# Method in brief: as §2
# [6] = system: Amaranthus retroflexus; test: as above; settings: application to foliage, 320 g/ha
# Method in brief: as §2
# [7] = system: Apera spica-venti.; test: as above; settings: application to foliage, 320 g/ha
# Method in brief: as §2
# [8] = system: Avena fatua; test: as above; settings: application to foliage, 320 g/ha
# Method in brief: as §2
# [9] = system: Chenopodium album; test: as above; settings: application to foliage, 320 g/ha
# Method in brief: as §2
# [10] = system: Digitaria ciliaris; test: as above; settings: application to foliage, 320 g/ha
# Method in brief: as §2
# [11] = system: Echinochloa crus-galli var. crus-galli; test: as above; settings: application to foliage, 320 g/ha
# Method in brief: as §2
# [12] = system: Galium spurium; test: as above; settings: application to foliage, 320 g/ha
# Method in brief: as §2
# [13] = system: Lolium multiflorum Lam.; test: as above; settings: application to foliage, 320 g/ha
# Method in brief: as §2
# [14] = system: Setaria viridis; test: as above; settings: application to foliage, 320 g/ha
# Method in brief: as §2
# [15] = system: Stellaria media; test: as above; settings: application to foliage, 320 g/ha
# Method in brief: as §2
# [16] = system: Veronica persica; test: as above; settings: application to foliage, 320 g/ha
# Method in brief: as §2
# [17] = system: Beta vulgaris ssp. vulgaris; test: Test Example 4: effect on crop by application to foliage (diluvial soil, plastic box); settings: application to foliage, 320 g/ha
# Method in brief: as §2
# [18] = system: Brassica campestris L.; test: as above; settings: application to foliage, 320 g/ha
# Method in brief: as §2
# [19] = system: Glycine max; test: as above; settings: application to foliage, 320 g/ha
# Method in brief: as §2
# [20] = system: Triticum aestivum; test: as above; settings: application to foliage, 320 g/ha
# Method in brief: as §2
# [21] = system: Zea mays; test: as above; settings: application to foliage, 320 g/ha
# Method in brief: as §2
# [22] = system: directly sowed Oryza sativa; test: as above; settings: application to foliage, 320 g/ha
# Method in brief: as §2
smiles,measurement,setting,value
Cn1nnnc1NC(=O)c1ccc(C(F)(F)F)n2c(SCc3ccc(Cl)nc3)nnc12 [2-097],E (herbicidal effect grade),[1],4 (Herbicidal ratio of 70% or more and less than 90%)
same,H (herbicidal effect grade),[2],2 (Herbicidal ratio of 20% or more and less than 40%)
same,D (herbicidal effect grade),[3],3 (Herbicidal ratio of 40% or more and less than 70%)
same,"herbicidal effect, M (Abutilon theophrasti)",[4],3 (Herbicidal ratio of 40% or more and less than 70%)
same,"herbicidal effect, J (Alopecurus myosuroides)",[5],1 (Herbicidal ratio of 5% or more and less than 20%)
same,"herbicidal effect, N (Amaranthus retroflexus)",[6],3 (Herbicidal ratio of 40% or more and less than 70%)
same,"herbicidal effect, L (Apera spica-venti.)",[7],2 (Herbicidal ratio of 20% or more and less than 40%)
same,"herbicidal effect, I (Avena fatua)",[8],2 (Herbicidal ratio of 20% or more and less than 40%)
same,"herbicidal effect, O (Chenopodium album)",[9],5 (Herbicidal ratio of 90% or more (almost completely withered))
same,"herbicidal effect, F (Digitaria ciliaris)",[10],4 (Herbicidal ratio of 70% or more and less than 90%)
same,"herbicidal effect, H (Echinochloa crus-galli var. crus-galli)",[11],5 (Herbicidal ratio of 90% or more (almost completely withered))
same,"herbicidal effect, Q (Galium spurium)",[12],3 (Herbicidal ratio of 40% or more and less than 70%)
same,"herbicidal effect, K (Lolium multiflorum Lam.)",[13],1 (Herbicidal ratio of 5% or more and less than 20%)
same,"herbicidal effect, G (Setaria viridis)",[14],3 (Herbicidal ratio of 40% or more and less than 70%)
same,"herbicidal effect, P (Stellaria media)",[15],4 (Herbicidal ratio of 70% or more and less than 90%)
same,"herbicidal effect, R (Veronica persica)",[16],4 (Herbicidal ratio of 70% or more and less than 90%)
same,"effect on crop, f (Beta vulgaris ssp. vulgaris)",[17],4 (Herbicidal ratio of 70% or more and less than 90%)
same,"effect on crop, g (Brassica campestris L.)",[18],1 (Herbicidal ratio of 5% or more and less than 20%)
same,"effect on crop, c (Glycine max)",[19],0 (Herbicidal ratio of 5% or less (almost no effect))
same,"effect on crop, e (Triticum aestivum)",[20],0 (Herbicidal ratio of 5% or less (almost no effect))
same,"effect on crop, b (Zea mays)",[21],0 (Herbicidal ratio of 5% or less (almost no effect))
same,"effect on crop, d (directly sowed Oryza sativa)",[22],3 (Herbicidal ratio of 40% or more and less than 70%)
CCSc1nnc2c(C(=O)Nc3nnnn3CCOC)ccc(C(F)(F)F)n12 [2-098],E (herbicidal effect grade),[1],5 (Herbicidal ratio of 90% or more (almost completely withered))
same,H (herbicidal effect grade),[2],5 (Herbicidal ratio of 90% or more (almost completely withered))
same,D (herbicidal effect grade),[3],5 (Herbicidal ratio of 90% or more (almost completely withered))
same,"herbicidal effect, M (Abutilon theophrasti)",[4],4 (Herbicidal ratio of 70% or more and less than 90%)
same,"herbicidal effect, J (Alopecurus myosuroides)",[5],2 (Herbicidal ratio of 20% or more and less than 40%)
same,"herbicidal effect, N (Amaranthus retroflexus)",[6],5 (Herbicidal ratio of 90% or more (almost completely withered))
same,"herbicidal effect, L (Apera spica-venti.)",[7],4 (Herbicidal ratio of 70% or more and less than 90%)
same,"herbicidal effect, I (Avena fatua)",[8],4 (Herbicidal ratio of 70% or more and less than 90%)
same,"herbicidal effect, O (Chenopodium album)",[9],5 (Herbicidal ratio of 90% or more (almost completely withered))
same,"herbicidal effect, F (Digitaria ciliaris)",[10],5 (Herbicidal ratio of 90% or more (almost completely withered))
same,"herbicidal effect, H (Echinochloa crus-galli var. crus-galli)",[11],5 (Herbicidal ratio of 90% or more (almost completely withered))
same,"herbicidal effect, Q (Galium spurium)",[12],4 (Herbicidal ratio of 70% or more and less than 90%)
same,"herbicidal effect, K (Lolium multiflorum Lam.)",[13],3 (Herbicidal ratio of 40% or more and less than 70%)
same,"herbicidal effect, G (Setaria viridis)",[14],5 (Herbicidal ratio of 90% or more (almost completely withered))
same,"herbicidal effect, P (Stellaria media)",[15],5 (Herbicidal ratio of 90% or more (almost completely withered))
same,"herbicidal effect, R (Veronica persica)",[16],4 (Herbicidal ratio of 70% or more and less than 90%)
same,"effect on crop, f (Beta vulgaris ssp. vulgaris)",[17],5 (Herbicidal ratio of 90% or more (almost completely withered))
same,"effect on crop, g (Brassica campestris L.)",[18],4 (Herbicidal ratio of 70% or more and less than 90%)
same,"effect on crop, c (Glycine max)",[19],1 (Herbicidal ratio of 5% or more and less than 20%)
same,"effect on crop, e (Triticum aestivum)",[20],3 (Herbicidal ratio of 40% or more and less than 70%)
same,"effect on crop, b (Zea mays)",[21],4 (Herbicidal ratio of 70% or more and less than 90%)
same,"effect on crop, d (directly sowed Oryza sativa)",[22],4 (Herbicidal ratio of 70% or more and less than 90%)
CCSc1nnc2c(C(=O)Nc3ncnn3C)ccc(C(F)(F)F)n12 [4-003],E (herbicidal effect grade),[1],0 (Herbicidal ratio of 5% or less (almost no effect))
same,H (herbicidal effect grade),[2],4 (Herbicidal ratio of 70% or more and less than 90%)
same,D (herbicidal effect grade),[3],3 (Herbicidal ratio of 40% or more and less than 70%)
same,"herbicidal effect, M (Abutilon theophrasti)",[4],4 (Herbicidal ratio of 70% or more and less than 90%)
same,"herbicidal effect, J (Alopecurus myosuroides)",[5],0 (Herbicidal ratio of 5% or less (almost no effect))
same,"herbicidal effect, N (Amaranthus retroflexus)",[6],2 (Herbicidal ratio of 20% or more and less than 40%)
same,"herbicidal effect, L (Apera spica-venti.)",[7],1 (Herbicidal ratio of 5% or more and less than 20%)
same,"herbicidal effect, I (Avena fatua)",[8],0 (Herbicidal ratio of 5% or less (almost no effect))
same,"herbicidal effect, O (Chenopodium album)",[9],5 (Herbicidal ratio of 90% or more (almost completely withered))
same,"herbicidal effect, F (Digitaria ciliaris)",[10],2 (Herbicidal ratio of 20% or more and less than 40%)
same,"herbicidal effect, H (Echinochloa crus-galli var. crus-galli)",[11],4 (Herbicidal ratio of 70% or more and less than 90%)
same,"herbicidal effect, Q (Galium spurium)",[12],1 (Herbicidal ratio of 5% or more and less than 20%)
same,"herbicidal effect, K (Lolium multiflorum Lam.)",[13],0 (Herbicidal ratio of 5% or less (almost no effect))
same,"herbicidal effect, G (Setaria viridis)",[14],1 (Herbicidal ratio of 5% or more and less than 20%)
same,"herbicidal effect, P (Stellaria media)",[15],4 (Herbicidal ratio of 70% or more and less than 90%)
same,"herbicidal effect, R (Veronica persica)",[16],2 (Herbicidal ratio of 20% or more and less than 40%)
same,"effect on crop, f (Beta vulgaris ssp. vulgaris)",[17],4 (Herbicidal ratio of 70% or more and less than 90%)
same,"effect on crop, g (Brassica campestris L.)",[18],1 (Herbicidal ratio of 5% or more and less than 20%)
same,"effect on crop, c (Glycine max)",[19],0 (Herbicidal ratio of 5% or less (almost no effect))
same,"effect on crop, e (Triticum aestivum)",[20],0 (Herbicidal ratio of 5% or less (almost no effect))
same,"effect on crop, b (Zea mays)",[21],0 (Herbicidal ratio of 5% or less (almost no effect))
same,"effect on crop, d (directly sowed Oryza sativa)",[22],4 (Herbicidal ratio of 70% or more and less than 90%)
